The results in this text go back to US20230173067A1 (Seagen Inc., priority 2020, published 2023).

Structures are written as SMILES.

Assay [1] has as its system CTG-0927 HER2 positive cholangiocarcinoma PDX model. Put plainly: CTG-0927 HER2 positive cholangiocarcinoma PDX model, tumor growth inhibition. The class given is in vivo, Mice. The following applies: CTG-0927 cholangiocarcinoma PDX model. On the procedure: (§1) The TGI index is calculated for a particular time point (e.g., a specific number of days into an experiment or clinical trial) according to the following formula: […]
(§2) where “Tx Day 0” denotes the first day that treatment is administered (i.e., the first day that an experimental therapy or a control therapy (e.g., vehicle only) is administered) and “Tx Day X” denotes X number of days after Day 0. […] As a non-limiting example, in an experiment where study day 0 corresponds to “Tx Day 0” and the TGI index is calculated on study day 28 (i.e., “Tx Day 28”), if the mean tumor volume in both groups on study day 0 is 250 mm^3 and the mean tumor volumes in the experimental and control groups are 125 mm^3 and 750 mm^3, respectively, then the TGI index on day 28 is 125%.
(§3) Tucatinib was administered orally at a dose of 50 mg/kg twice per day for 28 days (study days 0-27). […] A vehicle-only group was included as a negative control.

The subject of another assay is CTG-0121 CRC PDX model. Description: CTG-0121 HER2 positive CRC PDX model, tumor growth inhibition. It counts as in vivo, Mice. On the procedure:
as §1, §2, §3

In a further assay the test system is Calu-3 cells. Description: Response of Calu-3 cells to tucatinib in vitro. It counts as cell-based. The following applies: previously demonstrated.
Assay [2] relates to Calu-3 NSCLC xenograft model. Description: Calu-3 HER2 positive NSCLC xenograft model, tumor growth inhibition. The class given is in vivo, Mice. How it is done:
as §1, §2
(§4) For the Calu-3 study, tucatinib was administered orally at a dose of 50 mg/kg twice per day for 21 days, beginning on study day 7. […] A vehicle-only group was included as a negative control.

In a further assay the test system is CTG-0784 CRC PDX model. Description: CTG-0784 HER2 positive CRC PDX model, tumor growth inhibition. It counts as in vivo, Mice. How it is done: as §1, §2, §3
Assay [3] has as its system NCI-H2170 NSCLC xenograft model. Put plainly: NCI-H2170 HER2 positive NSCLC xenograft model, tumor growth inhibition. The class given is in vivo, Mice. How it is done:
as §1, §2, §4
For the NCI-H2170 study, tucatinib was administered orally at a dose of 50 mg/kg twice per day for 21 days, beginning on study day 18. […] A vehicle-only group was included as a negative control.

For assay [4], the system named is GXA 3039 gastric cancer PDX model. Put plainly: GXA 3039 HER2 positive gastric cancer PDX model, tumor growth inhibition. The class given is in vivo, Mice. How it is done: as §1, §2, §3
The test system of assay [5] is GXA 3054 gastric cancer PDX model. Put plainly: GXA 3054 HER2 positive gastric cancer PDX model, tumor growth inhibition. It counts as in vivo, Mice. How it is done:
as §1, §2, §3

The subject of another assay is CTG-0383 CRC PDX model. Put plainly: CTG-0383 HER2 positive CRC PDX model, tumor growth inhibition. It counts as in vivo, Mice. How it is done: as §1, §2, §3
The test system of assay [6] is GXA 3038 gastric cancer PDX model. Description: GXA 3038 HER2 positive gastric cancer PDX model, tumor growth inhibition. It counts as in vivo, Mice. How it is done:
as §1, §2, §3

Assay [7] has as its system CTG-0138 esophageal cancer PDX model. Put plainly: CTG-0138 HER2 positive esophageal cancer PDX model, tumor growth inhibition. The class given is in vivo, Mice. On the procedure:
as §1, §2, §3

The next assay has as its system NCI-H2170 cells. Description: Response of NCI-H2170 cells to tucatinib in vitro. It counts as cell-based. The following applies: previously demonstrated.
The test system of assay [8] is CTG-0137 esophageal cancer PDX model. Description: CTG-0137 HER2 positive esophageal cancer PDX model, tumor growth inhibition. It counts as in vivo, Mice. On the procedure:
as §1, §2, §3

Consider `Cc1cc(Nc2ncnc3ccc(NC4=NC(C)(C)CO4)cc23)ccc1Oc1ccn2ncnc2c1` [Tucatinib, tucatinib], for which the “effect on tumor growth (in words)” value (in [1]; in the assay on CTG-0121 CRC PDX model; in assay [2]; in the assay on CTG-0784 CRC PDX model; in assay [3]; in [4]) was “inhibited tumor growth” throughout. In addition, the “effect on tumor growth (in words)” value (in assay [5]; with CTG-0383 CRC PDX model; in assay [6]; in assay [7]; in assay [8]) was “inhibited tumor growth” in each case. Besides, the “response to tucatinib in vitro” value in the assay on Calu-3 cells and with NCI-H2170 cells was “good responses” in each case.
